{"source": "patent US9351986B2", "about": "“Calicheamicin derivative-carrier conjugates” (priority 2002, dated 2016)", "key": {"Fc-CD22": {"tested_on": "Fc-CD22", "sequence (P20273 20-416 limits assumed)": "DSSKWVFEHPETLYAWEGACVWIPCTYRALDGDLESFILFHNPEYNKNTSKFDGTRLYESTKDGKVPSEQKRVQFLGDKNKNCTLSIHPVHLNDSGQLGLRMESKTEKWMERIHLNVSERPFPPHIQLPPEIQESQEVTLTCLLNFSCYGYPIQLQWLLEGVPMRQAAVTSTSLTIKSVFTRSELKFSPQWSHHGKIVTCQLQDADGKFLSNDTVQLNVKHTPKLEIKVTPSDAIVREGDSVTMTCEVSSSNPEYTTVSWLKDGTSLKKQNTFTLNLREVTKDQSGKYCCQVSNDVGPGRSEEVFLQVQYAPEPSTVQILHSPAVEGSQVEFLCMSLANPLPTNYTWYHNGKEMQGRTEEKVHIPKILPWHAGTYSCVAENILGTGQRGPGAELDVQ", "assay": "BIACORE blocking of murine anti-CD22 mAbs by G5/44 on immobilized Fc-CD22", "format": "binding", "conditions": "Fc-CD22 saturated with G5/44 (100 μg/ml), before murine mAb", "experimental": "Whether or not G5/44 can inhibit the binding of murine mAbs of known specificity to CD22 was evaluated by BIACORE™ analysis using Fc-CD22 immobilized to a BIACORE™ CM5 chip. The surface plasmon resonance units (RU) obtained with and without prior saturation of the immobilized Fc-CD22 with G5/44 were compared. Biomolecular interaction analysis was performed using a BIACORE™ 2000. Antibodies were passed over a blank control surface (flowcell 1, serves as a control, no protein was coupled) and the test surface of Fc-CD22 (flowcell 2) immobilized on a CM5 sensor chip via amine coupling chemistry to a level of 9,042 RU. The resultant sensorgram was the response (RU) on flowcell 2 minus the response (RU) on flowcell 1. A second sensorgram was obtained by first saturating the flowcells with G5/44 (100 μg/ml) before the introduction of murine mAbs against CD22 that had been previously characterized for their binding. Immediately upon measuring the G5/44 response, murine anti-CD22 mAbs were individually perfused without removing G544. The second combined response generated due to the binding of murine anti-CD22 mAb to G5/44-coated CD22 was also recorded. If the murine antibody bound to CD22 at sites unrelated to those occupied by G5/44, then the combined responses would be additive. […]"}, "[1]": {"tested_on": "CD22− CD33+ HL-60 leukemia cells", "assay": "Flow cytometry binding to HL-60 leukemia cells", "conditions": "data not shown", "text": "(§1) Purified human polyclonal IgG1 and IgG4 were also used as negative controls."}, "CD22 on B cells": {"tested_on": "CD22 on B cells", "assay": "Species specificity of CD22 recognition on B cells", "format": "binding, human, murine, rat, canine, porcine, cynomolgus and rhesus", "conditions": "data not shown", "text": "as §1"}, "RAMOS B-cell lymphoma": {"tested_on": "RAMOS B-cell lymphoma", "assay": "RAMOS B-cell lymphoma xenograft growth", "format": "in vivo", "conditions": "FIG. 18", "text": "In Vivo Cytotoxicity. CMC-544 made by the CMC-544 process was further evaluated in B-cell lymphoma xenografts. In these studies, two B-cell lymphoma tumors, RAMOS and RL, were used. RL lymphoma is a non-Burkitt's NHL-derived cell line whereas RAMOS was originally derived from a Burkitt's lymphoma."}, "RL NHL xenografts": {"tested_on": "RL NHL xenografts", "assay": "RL NHL xenografts staged to 300-400 mg in nude mice", "format": "in vivo", "conditions": "for MEAN RELATIVE TUMOR GROWTH: tumor mass at Week 3/day 1", "procedure": "Similar studies were carried out using the RL lymphoma model. […] CMC-544 in a dose-dependent manner caused tumors to regress over a 3-week time frame. The minimally effective dose of CMC-544 in the RL lymphoma model was established from statistical analyses of these studies to be 20 μg/kg based on calicheamicin content. There were no deaths in any of these three studies.\nThe observed anti-tumor efficacy was dose-dependent as expected and there was no difference in the efficacies of either of the two CMC-544 preparations. […] However, it should be emphasized that for each dose of conjugated calicheamicin, the quantity of antibody protein administered in the form of a conjugate was four times higher for CMC-544 made by the CMA-676 process versus that made by the CMC-544 process. Since the calicheamicin content of the targeted conjugate is primarily responsible for causing the anti-tumor effect, it is possible to deliver the required quantity of calicheamicin via the conjugate made by the new procedure using much smaller quantities of the targeting antibody. The increased loading of the conjugate made by the CMC-544 process is, in effect, due to the lack of significant amounts of the low conjugated fraction (LCF)."}, "large RAMOS lymphoma": {"tested_on": "large RAMOS lymphoma", "assay": "Large established RAMOS lymphoma xenografts", "format": "in vivo, nude mice", "conditions": "days 1, 5 and 9", "procedure": "(§2) The ability of CMC-544 made by the new procedure to inhibit growth of large established B-cell lymphoma xenografts using both the RAMOS and RL lymphoma models was also investigated. The tumors were allowed to grow and staged to 1.5 or 2 g of tumor mass after which CMC-544 or an isotype-matched negative control conjugate (CMA-676) were administered intraperitoneally at the dose of 160 μg/kg of conjugated calicheamicin keeping the original schedule of dosing on days 1, 5 and 9.\nThe same schedule of dosing was shown earlier to cause long lasting regression of small staged tumors (see Table 6)."}, "RL lymphoma": {"tested_on": "RL lymphoma", "assay": "Large established RL lymphoma xenografts", "format": "in vivo, mice", "procedure": "as §2\nA similar experiment using CMC-544 was carried out in the RL lymphoma model. Intraperitoneal administration of CMC-544 at a dose of 160 μg/kg on a similar schedule as described before caused >90% regression of the pre-existing mass of RL lymphoma within 30 days. […] In a small number of studies not shown here, RL lymphomas that re-grew sporadically after the initial CMC-544-induced regression were retreated with CMC-544 again. […] Thus, the treatment with CMC-544 can be effective against both small and large masses of B-cell lymphomas with the potential for repeat therapy."}, "Ramos cells [2]": {"tested_on": "Ramos cells", "assay": "Ramos cell viability, CMC-544 with and without rituximab, 96 hours", "format": "cell-based", "conditions": "CMC-544 alone, calicheamicin DMH", "procedure": "After 96 hours, cell viability was measured by propidium iodide exclusion analyzed by flow cytometry. […] The statistical analysis was conducted using the PROBIT procedure in SAS version 8.2."}, "Ramos cells [3]": {"tested_on": "Ramos cells", "assay": "Disseminated RAMOS B lymphoma in SCID mice, developing model", "format": "in vivo", "conditions": "Table 8; conjugates 160 μg/kg, rituximab 20 mg/kg ip Q4Dx3 from day 3", "procedure": "(§3) Male SCID mice (CB17 SCID), 20-25 g, were injected with […] through the tail vein (0.2 ml). […] For the day 3 treatment schedule, mice were dosed on days 3, 7, and 11. For the day 9 treatment schedule, mice were dosed on days 9, 13 and 17. […] Mice were monitored daily for the presence of hind limb paralysis at which time they were killed. Seven to 10 mice per treatment group were used. The group average survival time (±SD), median, minimum, and maximum survival times were all calculated. The difference in survival distribution between groups was determined by using a nonparametric Log-rank test with significance reported at the 0.05 level. The survival curves were constructed using the Kaplan-Meier method.\n(§4) The initial study examined the effect of two different dosing schedules on survival times of the SCID mice with the disseminated lymphoma. The first study looked at initiating drug dosing 3 days after the tumor cells were injected intravenously (developing model), while the second study delayed drug dosing until 9 days post tumor cell injection (established model)."}, "Ramos cells [4]": {"tested_on": "Ramos cells", "assay": "Disseminated RAMOS B lymphoma in SCID mice, established model", "format": "in vivo", "procedure": "as §3\nas §4, with “model). […]” for “model).”"}, "RL B lymphoma xenograft": {"tested_on": "RL B lymphoma xenograft", "assay": "Subcutaneous RL B lymphoma xenograft, CMC-544 versus rituximab and CHOP", "format": "in vivo, Balb/c nude mice", "conditions": "IP, Q4Dx3, 160 μg/kg calicheamicin equivalents", "experimental": "Female, athymic nude mice, 18-22 g, were given total body irradiation (400 rads). […] Three days after irradiation, mice were injected subcutaneously with 107 RL cells in […] ™ (Collaborative Biomedical Products, Belford, Mass., diluted 1:1 in RPMI medium) in the dorsal, right flank. […] The initial day of drug administration was considered day 1. Two additional doses were given on days 5 and 9 (treatment=q4Dx3). […] Tumors were measured at least once a week and calculated as tumor mass (g)=0.5 (tumor width/2) (tumor length). Group means SEM were calculated and compared to the vehicle-treated group for statistical significance using multiple T-tests. Group means were recorded up to 50 days or until either a mouse died (which disrupted the group mean) or the tumor grew too large (>3.5 g) and the mouse had to be euthanized. […] The number of tumor free mice at the end of each study for each treatment group was also recorded. […]\nIndividual components of the CHOP regimen were used at their respective maximum tolerated doses assessed in nude mice (data not reported) and were as follows: Cyclophosphamide (C) 40 mg/kg IP, doxorubicin (H) 3.3 mg/kg IP, vincristine (O) 0.5 mg/kg IP, and prednisone (P) 0.2 mg/kg PO. […]"}, "[5]": {"conditions": "Table 8, conjugates 160 μg/kg, rituximab 20 mg/kg ip Q4Dx3 from day 9"}, "[6]": {"conditions": "Table 9, high dose: CMC-544 160 μg/kg, rituximab 20 mg/kg, alone or combined"}, "[7]": {"conditions": "Table 10, high dose: CMC-544 160 μg/kg, rituximab 20 mg/kg, alone or combined"}, "[8]": {"conditions": "Table 10, low dose: CMC-544 40 μg/kg, rituximab 5 mg/kg, alone or combined"}, "[9]": {"conditions": "Table 10, medium dose: CMC-544 80 μg/kg, rituximab 10 mg/kg, alone or combined"}}, "note": "“And” between values parts separate entries of the source, which are not always exact repeats. Equal values may be shown once.", "data": [{"substance": "5/44: murine anti-CD22 monoclonal antibody, the murine parent of G5/44", "values": [{"measurement": "Response 1 with G544", "setting": "Fc-CD22", "result": 725.1, "unit": "RU"}]}, {"substance": "CMC-544: G5/44-NAc-gamma-calicheamicin DMH AcBut conjugate; monomeric calicheamicin derivative/humanized anti-CD22 antibody (G5/44)", "values": [{"measurement": "binding to HL-60 leukemia cells", "setting": "[1]", "result": "neither CMC-544 nor G5/44 demonstrated any binding"}, {"measurement": "recognition of CD22 on B cells of different species", "setting": "CD22 on B cells", "result": "specifically recognizes CD22 on human B cells, but not on murine, rat, canine, porcine or primate (cynomolgus and rhesus) B cells"}, {"measurement": "inhibition of growth of RAMOS B-cell lymphoma", "setting": "RAMOS B-cell lymphoma", "result": "efficacious in inhibiting, in a dose-dependent manner, the growth of RAMOS B-cell lymphoma"}, {"measurement": "tumor regression at higher doses", "setting": "RL NHL xenografts; 60-320 μg/kg", "result": "almost complete regression of RL lymphoma"}, {"measurement": "minimally effective dose in the RL lymphoma model", "setting": "RL NHL xenografts; based on calicheamicin content, from statistical analyses of three studies", "result": 0.02, "unit": "mg/kg"}, {"measurement": "% T/C", "setting": "RL NHL xenografts; calicheamicin dose 20 μg/kg", "result": 43, "unit": "%"}, {"measurement": "MEAN RELATIVE TUMOR GROWTH", "setting": "RL NHL xenografts; calicheamicin dose 20 μg/kg", "result": 2.87}, {"measurement": "% T/C", "setting": "RL NHL xenografts; calicheamicin dose 40 μg/kg", "result": 20, "unit": "%"}, {"measurement": "MEAN RELATIVE TUMOR GROWTH", "setting": "RL NHL xenografts; calicheamicin dose 40 μg/kg", "result": 1.34}, {"measurement": "% T/C", "setting": "RL NHL xenografts; calicheamicin dose 60 μg/kg", "result": 9, "unit": "%"}, {"measurement": "MEAN RELATIVE TUMOR GROWTH", "setting": "RL NHL xenografts; calicheamicin dose 60 μg/kg", "result": 0.58}, {"measurement": "% T/C", "setting": "RL NHL xenografts; calicheamicin dose 80 μg/kg", "result": 8, "unit": "%"}, {"measurement": "MEAN RELATIVE TUMOR GROWTH", "setting": "RL NHL xenografts; calicheamicin dose 80 μg/kg", "result": 0.54}, {"measurement": "% T/C", "setting": "RL NHL xenografts; calicheamicin dose 160 μg/kg", "result": 3, "unit": "%"}, {"measurement": "MEAN RELATIVE TUMOR GROWTH", "setting": "RL NHL xenografts; calicheamicin dose 160 μg/kg", "result": 0.21}, {"measurement": "% T/C", "setting": "RL NHL xenografts; calicheamicin dose 320 μg/kg", "result": 1, "unit": "%"}, {"measurement": "MEAN RELATIVE TUMOR GROWTH", "setting": "RL NHL xenografts; calicheamicin dose 320 μg/kg", "result": 0.10}, {"measurement": "deaths", "setting": "RL NHL xenografts; three independent experiments, 20-320 μg/kg", "result": "no deaths"}, {"measurement": "tumor-free mice by day 20", "setting": "large RAMOS lymphoma; 160 μg/kg conjugated calicheamicin ip, tumors staged to 1.5 or 2 g", "result": "3 out of 4"}, {"measurement": "re-growth of regressed lymphoma up to day 50", "setting": "large RAMOS lymphoma; 160 μg/kg ip", "result": "did not indicate any re-growth"}, {"measurement": "mice with re-growth of the tumors by day 45", "setting": "RL lymphoma; 160 μg/kg ip", "result": 2}, {"measurement": "regression of the pre-existing mass of RL lymphoma", "setting": "RL lymphoma; 160 μg/kg ip, within 30 days", "result": "> 90", "unit": "%"}, {"measurement": "response of re-grown RL tumors to a second course", "setting": "RL lymphoma; studies not shown", "result": "still responsive to the second course of the treatment with CMC-544 and regressed again"}, {"measurement": "median inhibitory concentration (IC50)", "setting": "Ramos cells [2]", "result": 0.029, "unit": "ng/mL"}, {"measurement": "Average Survival Time", "setting": "Ramos cells [3]", "result": "41 days and 41.0 days"}, {"measurement": "Maximum Survival Time", "setting": "Ramos cells [3]", "result": 60.0, "unit": "days"}, {"measurement": "Median Survival Time", "setting": "Ramos cells [3]", "result": 38.0, "unit": "days"}, {"measurement": "Minimum Survival Time", "setting": "Ramos cells [3]", "result": 32.0, "unit": "days"}, {"measurement": "mice still surviving at 125 days", "setting": "Ramos cells [4]; CMC-544 40 μg/kg", "result": 90, "unit": "%"}, {"measurement": "Average Survival Time", "setting": "Ramos cells [4]; [5]", "result": 83.5, "unit": "days"}, {"measurement": "Median Survival Time", "setting": "Ramos cells [4]; [5]", "result": 76.5, "unit": "days"}, {"measurement": "Minimum Survival Time", "setting": "Ramos cells [4]; [5]", "result": 34.0, "unit": "days"}, {"measurement": "Maximum Survival Time", "setting": "Ramos cells [4]; [6]", "result": ">100.0", "unit": "days"}, {"measurement": "Median Survival Time", "setting": "Ramos cells [4]; [6]", "result": 34.5, "unit": "days"}, {"measurement": "Minimum Survival Time", "setting": "Ramos cells [4]; [6]", "result": 27.0, "unit": "days"}, {"measurement": "Average Survival Time", "setting": "Ramos cells [4]; Table 9 initial combination study, high dose: CMC-544 160 μg/kg, rituximab 20 mg/kg, alone or combined", "result": 58.5, "unit": "days"}, {"measurement": "Average Survival Time", "setting": "Ramos cells [4]; [7]", "result": "85 days and 85.22 days"}, {"measurement": "Maximum Survival Time", "setting": "Ramos cells [4]; [7]", "result": 125.00, "unit": "days"}, {"measurement": "Median Survival Time", "setting": "Ramos cells [4]; [7]", "result": 82.00, "unit": "days"}, {"measurement": "Minimum Survival Time", "setting": "Ramos cells [4]; [7]", "result": 35.00, "unit": "days"}, {"measurement": "Average Survival Time", "setting": "Ramos cells [4]; [8]", "result": 118.90, "unit": "days"}, {"measurement": "Maximum Survival Time", "setting": "Ramos cells [4]; [8]", "result": 125.00, "unit": "days"}, {"measurement": "Median Survival Time", "setting": "Ramos cells [4]; [8]", "result": 125.00, "unit": "days"}, {"measurement": "Minimum Survival Time", "setting": "Ramos cells [4]; [8]", "result": 64.00, "unit": "days"}, {"measurement": "Average Survival Time", "setting": "Ramos cells [4]; [9]", "result": 118.22, "unit": "days"}, {"measurement": "Maximum Survival Time", "setting": "Ramos cells [4]; [9]", "result": 125.00, "unit": "days"}, {"measurement": "Median Survival Time", "setting": "Ramos cells [4]; [9]", "result": 125.00, "unit": "days"}, {"measurement": "Minimum Survival Time", "setting": "Ramos cells [4]; [9]", "result": 71.00, "unit": "days"}, {"measurement": "antitumor effect", "setting": "RL B lymphoma xenograft", "result": "complete and lasted throughout the experimental period"}]}]}
